Several values for one entry are separate records, joined by “and”; a condition that tells them apart may be missing. Equal values may be shown once. Read-outs that look alike come from different tables or passages of the source.
Assays:
bone marrow GM-CFU [1] = test system: bone marrow GM-CFU
Experimental: Bone marrows were harvested 24 hours after cisplatin administration.
Bone marrows were harvested 24 hours after administration of the second drug.

bone marrow GM-CFU [2] = experiment: 5-fluorouracil-induced GM-CFU suppression in mice; settings: for GM-CFU: harvest 48 hours after 5-FU
Experimental: The control group was not treated with either drug. Bone marrows were harvested and GM-CFUs were determined 24 hours after the final injection.
Values are the mean ± SE of three mice per point.

[3] = test system: normal human bone marrow multipotential (CFU-GEMM) progenitor cells; experiment: colony formation, human bone marrow CFU-GEMM; assay type: cell-based; settings: EPO + 50 ng/ml SLF
Experimental: The effects are dose-dependent, usually in the range of 1.0 to 10.0 µM, and in most cases for cells stimulated by GM-CSF, G-CSF, M-CSF, Flt3/Flk-2 and Steel factor (stem cell factor/c-kit ligand). Of particular interest was the finding that TER199 enhances colony formation stimulated by combinations of cytokines. Additionally, the enhancing effect is more pronounced in human than in murine bone marrow.

HT-29 cells = experiment: Cytosensor Microphysiometer acidification rates; assay type: cell-based, human; settings: 4 hours pretreatment, TER199 20 µM, ethacrynic acid 50 µM
Experimental: The metabolic effects related to toxicity of the compounds of the invention on HT-29 cells, were tested using a Cytosensor Microphysiometer made by Molecular Devices, Inc., Menlo Park, CA and described in McConnell, H.M. et al. Science (1992) 257:1906-1912 and by Wada, H.G. et al. AATEX (1992) 1:154-164. Changes in pH of the culture medium are measured as a function of cellular metabolism. Acidification rates of the small volume of liquid flowing over the cells correlate with the number of live cells in the reaction chamber; a reduction of acidification rate reflects reduced numbers of surviving cells. […] The medium was then replaced with serum-free low buffer capacity medium and Microphysiometer analysis was initiated.

bone marrow GM-CFU [4] = experiment: stimulation of bone marrow GM-CFU after administration to mice; assay type: in vivo, B6D2F1 mice; settings: for most effective dose on bone marrow GM-CFU (Figure 4a): single treatment, harvest 24 hours
Experimental: In an illustrative assay three B6D2F1 mice were treated with various doses of benzyl PG intraperitoneally.
Mice in the control group were injected with water or saline. Bone marrow cells were harvested 24 hours after drug treatment and added to alpha minimum essential medium (alpha MEM) supplemented with methylcellulose (0.8% w/v), fetal bovine serum (20% v/v), deionized BSA (1% w/v), Pokeweed mitogen-stimulated spleen-cell conditioned medium (PWM-SCCM)^1 (10% v/v) and gentamycin (50 Tg/ml). One ml aliquots were plated (four replicate plates) and incubated for seven days at 37 °C. […] Spleens were removed aseptically from four male B6D2F1 mice enforced through a 200 Tm wire mesh screen to obtain a single cell suspension. Ten ml of the suspension (2-4 X 10^7 cell/ml was added to 90 ml alpha-MEM supplemented with 1% deionized BSA, 50 Tg/ml gentamicin, 0.3% freshly reconstituted pokeweed antigen, 10 µM 2-mercaptoethanol. The mixture was incubated for 5 days at […] in a 5% CO2 atmosphere and the result-ing conditioned medium was centrifuged at 800g for ten minutes and filtered through a 0.22 Tm filter. Aliquots were kept frozen at […] until use.
Bone marrow was harvested 24 hours after administering the compounds and GM-CFU levels measured as described above.

[5] = in vitro half-life in human blood; assay type: in vitro ADME
[6] = test system: HT-29 (human colon adenocarcinoma) cells; experiment: modified clonogenic assay, potentiation of chlorambucil cytotoxicity; assay type: cell-based; settings: chlorambucil, mean ±S.D. of 2-3 experiments; for DMF (dose modification factor), Diethyl ester: HT-29, dose tested 12.5 µM
Experimental: HT-29 (human colon adenocarcinoma) cells were obtained from Dr. Roberto Ceriani (Cancer Research Fund of Contra Costa County, Walnut Creek, CA) and were used in log phase of growth unless otherwise specified. Chlorambucil (CMB) was obtained from Sigma (St. Louis, MO) and was dissolved in 100% ethanol. All GST inhibitors were dissolved in ethanol, DMSO, or water just prior to use. The same amount of solvent added to culture medium served as the vehicle control.
In a modified clonogenic assay for cytotoxicity, cells were suspended at 2 x 10^5 cells/ml in serum-free medium in the presence of vehicle or inhibitor. […] Cells were incubated for 2 hours, then varying doses of CMB were added. At the end of a second 2-hour incubation, cells were diluted to 7.5-10 x 10^3/ml in serum-containing medium and plated in quadruplicate at 200 µl/well in Microtest III microtiter plates.
Plates were incubated for 6 days and assayed by a modified methylene blue method. Briefly, cells were fixed with 1.25% glutaraldehyde in PBS then stained with 0.05% methylene blue in distilled water. Plates were washed several times in distilled water to remove unretained dye and retained dye was resolubilized in 0.03 N HCl. Plates were read at 650 nm in a Molecular Devices Vmax plate reader (Molecular Devices, Redwood City, CA). […] A dose modification factor (DMF), a measure of potentiation of cytotoxicity, was calculated for each inhibitor by dividing the IC50 value of CMB without inhibitor treatment by the IC50 value for CMB with inhibitor treatment.

HT4-1 tumors = experiment: potentiation of melphalan toxicity in vivo, implanted HT4-1 tumors; set-up: species or system Male scid mice; settings: group 5: 5 mg/kg melphalan + 60 mg/kg TER199, seven days; when control tumors reached 1500 mm^3
Experimental: Male scid mice were subcutaneously implanted with HT4-1 tumors from donor mice. HT4-1 is a subclone of HT-29, a human colon cancer. When tumors reached approximately 100 mm^3, the mice were randomized into six treatment groups and treated for seven days as follows: • 1. 5 mg/kg melphalan; • 2. 10 mg/kg ethacrynic acid; • 3. […] 5 mg/kg melphalan + 10 mg/kg ethacrynic acid; • 5.
The mice were monitored for weight changes and tumor volumes were determined by measurement with calipers. The tumor growth was monitored until the average tumor size reached 1500 mm^3 for all groups except melphalan with ethacrynic acid.
The results were computed in terms of the tumor volume in the drug treated mice as a percentage of control tumor volume (i.e., in the group administered vehicle alone). In group 1, administered melphalan alone, the tumors were approximately 75% of the volume of controls. […] For group 4 administered a combination of melphalan and ethacrynic acid, the volumes were approximately 35% of control. […] (The volume measurements were taken at the time control tumors reached 1500 mm^3.)

[7] = TER199 150 mg/kg p.o. 24 hours after cisplatin 20 mg/kg i.p.

CCOC(=O)[C@@H](N)CCC(=O)N[C@@H](CSCc1ccccc1)C(=O)N[C@@H](C(=O)OCC)c1ccccc1 [TER199, γE ethyl ester-C(Bz)-R-(-)-ϕG ethyl ester]
GM-CFUs per femur (bone marrow GM-CFU [1]; TER199 60 mg/kg i.p. 24 hours before cisplatin 15 mg/kg i.p.): 62 % of control | GM-CFU (bone marrow GM-CFU [1]; [7]): 40% | increase in GM-CFU versus cisplatin alone (bone marrow GM-CFU [1]; [7]): 2.5 fold | GM-CFU (bone marrow GM-CFU [1]; TER199 150 mg/kg p.o. 24 hours before cisplatin 20 mg/kg i.p.): 52 % of control | GM-CFU counts per femur (bone marrow GM-CFU [2]; 60 mg/kg TER199 IP 24 hours after 75 mg/kg 5-FU IP): greater than control values | number of GM-CFUs per femur compared with fluorouracil alone (bone marrow GM-CFU [2]; 60 mg/kg TER199 IP simultaneously with 75 mg/kg 5-FU IP): fourfold increase | GM-CFU (bone marrow GM-CFU [2]; TER199 150 mg/kg p.o. 24 hours after 5-FU 75 mg/kg i.p.): 90 % of control | GM-CFU (bone marrow GM-CFU [2]; TER199 150 mg/kg p.o. 24 hours after 5-FU 150 mg/kg i.p.): 71 % of control | GM-CFU by day 4 after 5-FU administration (Figure 9b) (bone marrow GM-CFU [2]; TER199 IP 24 hours after 5-FU): about twice that of control | effect on GM-CFU (Figure 9c) (bone marrow GM-CFU [2]; TER199 i.p. 24 hours prior to 5-FU): essentially no effect | Colony number ([3]; TER199 0.1 µM): 12±1 and 19±2 | Colony number ([3]; TER199 1.0 µM): 17±2 and 23±2 | % change from control ([3]; TER199 10 µM): 60% and 36% | Colony number ([3]; TER199 10 µM): 16±1 and 30±1 | effect on acidification rates, compound alone (Figure 2) (HT-29 cells; no chlorambucil): Neither γE-C(Bz)-ϕG diethylester (TER199) nor ethacrynic acid alone had any appreciable effect | effect of pretreatment on acidification rates with chlorambucil (Figure 2) (HT-29 cells; then 100 µM chlorambucil): potentiated the effect of chlorambucil | GM-CFU (bone marrow GM-CFU [4]; 90 mg/kg intraperitoneally, marrow harvested 24 hours later, controls about 140): approximately 275 colonies/10^4 nucleated cells | most effective dose on bone marrow GM-CFU (Figure 4a) (bone marrow GM-CFU [4]; IP administration): 60 to 90 mg/kg | effect on GM-CFU as a function of dosage, ester/amide forms (Figure 7) (bone marrow GM-CFU [4]; bone marrow harvested 24 hours after administering): significantly more effective than the mixed ester amide (TER300) | most effective dose on bone marrow GM-CFU (Figure 4a) (bone marrow GM-CFU [4]; oral administration): 120 to 180 mg/kg | time of maximum stimulation of GM-CFU (Figure 5) (bone marrow GM-CFU [4]; single 60 mg/kg dose IP on day 0): day 2 and day 5 | half-life [5]: ~1.5 h | half-life, comparison of the three compounds [5]: approximately the same | DMF (dose modification factor), Diethyl ester [6]: 1.65 | DMF (dose modification factor), Diethyl ester ([6]; listed as γE-C(Bz)-ϕG diethyl ester): 1.65 ± 0.04 | DMF of DEE ([6]; diethyl ester): 1.651 | tumor volume as a percentage of control tumor volume (HT4-1 tumors): approximately 55%

— patent publication EP0831877B1, “METABOLIC EFFECTS OF CERTAIN GLUTATHIONE ANALOGS” (TELIK, INC., priority 1995, dated 1996)
